Laboratory results reported in US10829520B2, “Beta-hairpin peptidomimetics” (POLYPHOR AG, priority 2015, dated 2020).
Where a SMILES comes first, the peptide text is derived from it. Bridges are numbered along the chain shown (N, C = ends). Roman numbers before positions name the chains, in order. [ ]: non-standard residue; d: D form. Tle = CC(C)(C)[C@H](N)C(=O)O; dDab = NCC[C@@H](N)C(=O)O; Nle = CCCC[C@H](N)C(=O)O; Orn = NCCC[C@H](N)C(=O)O; Dab = NCC[C@H](N)C(=O)O; dAze = O=C(O)[C@H]1CCN1; Dap = NC[C@H](N)C(=O)O; Sar = CNCC(=O)O

Tests used:
Type in all cases: cell-based
[1] = system: Escherichia coli 926415; settings: 926415
[2] = system: Pseudomonas aeruginosa ATCC 27853; settings: ATCC 27853
Method in brief: (§1)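 Read-out is the minimal inhibitory concentration in μg/mL, taken as the lowest peptide level without visible growth after 18-20 h at 35° C. Testing followed CLSI broth microdilution in cation-adjusted Mueller-Hinton II broth plus 0.002% Polysorbate 80, with roughly 10^6 CFU/mL.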

[3] = system: Escherichia coli ATCC 25922; settings: ATCC 25922
Method in brief: as §1

[4] = system: Acinetobacter baumannii DSM 30008; settings: DSM 30008
Method in brief: as §1

[5] = system: Acinetobacter baumannii 872842; settings: 872842
[6] = system: Klebsiella pneumoniae 968733; settings: 968733
[7] = system: Klebsiella pneumoniae SSI #3010; settings: SSI #3010
Method in brief: as §1

[8] = system: human red blood cells (hRBC); experiment: Hemolysis of human red blood cells; settings: red cells of human, 1 h
Method in brief: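 Washed fresh human erythrocytes (20% v/v, ~0.9×10^9 cells/mL final) were incubated with peptides at 100 μg/mL for 1 h at 37 °C with shaking. Supernatant OD540 measured; hemolysis expressed as % of 2.5% Triton X-100 lysis, with PBS/0.001% acetic acid as 0%.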

Row | Compound | Escherichia coli 926415 MIC [1] [µg/mL] | Pseudomonas aeruginosa ATCC 27853 MIC [2] [µg/mL] | Escherichia coli ATCC 25922 MIC [3] [µg/mL] | Acinetobacter baumannii DSM 30008 MIC [4] [µg/mL] | Acinetobacter baumannii 872842 MIC [5] [µg/mL] | Klebsiella pneumoniae 968733 MIC [6] [µg/mL] | Klebsiella pneumoniae SSI #3010 MIC [7] [µg/mL] | Hemolysis at 100 μg/mL ([8]; 100 μg/mL) [%] | Hemolysis at 100 μg/mL [8]; 100 [%]
1 | CNCC(=O)N[C@@H](Cc1c[nH]c2ccccc12)C(=O)N[C@H]1CSSC[C@@H](C(=O)N(C)CC(=O)N[C@H](C(=O)N[C@@H](CCN)C(=O)N[C@@H](CCN)C(=O)N[C@H]2CCNC(=O)[C@H]([C@@H](C)O)NC(=O)[C@H](CCN)NC(=O)[C@H](CCN)NC(=O)[C@H](CC(C)C)NC(=O)[C@@H](CC(C)C)NC(=O)[C@H](CCN)NC2=O)[C@@H](C)O)NC(=O)[C@H](Cc2ccc(O)cc2)NC(=O)[C@H](CO)NC(=O)[C@H](CC(C)C)NC(=O)[C@@H]2CCCN2C(=O)[C@H]2CCCN2C(=O)[C@H](CO)NC(=O)[C@H](C)NC(=O)[C@H](C(C)C)NC1=O [Ex. 184] (H-[Sar]WCVAS[dP]PLSYC[Sar]T[Dab][Dab][Dab][Dab][dL]L[Dab][Dab]T; disulfide 3-12; lactam 17-C) | 1 | 0.75 | 0.5 | 0.5 | 1 | 1 | 0.5 | <1 | –
2 | CNCC(=O)N[C@@H](Cc1c[nH]c2ccccc12)C(=O)N[C@H]1CSSC[C@@H](C(=O)N(C)CC(=O)N[C@@H](CCN)C(=O)N[C@H](C(=O)N[C@@H](CCN)C(=O)N[C@H]2CCNC(=O)[C@H]([C@@H](C)O)NC(=O)[C@H](CCN)NC(=O)[C@H](CCN)NC(=O)[C@H](CC(C)C)NC(=O)[C@@H](CC(C)C)NC(=O)[C@H](CCN)NC2=O)[C@@H](C)O)NC(=O)[C@H](Cc2ccc(O)cc2)NC(=O)[C@H](CO)NC(=O)[C@H](CC(C)C)NC(=O)[C@@H]2CCCN2C(=O)[C@H]2CCCN2C(=O)[C@H](CCN)NC(=O)[C@H](C)NC(=O)[C@H](C(C)C)NC1=O [Ex. 185] (H-[Sar]WCVA[Dab][dP]PLSYC[Sar][Dab]T[Dab][Dab][Dab][dL]L[Dab][Dab]T; disulfide 3-12; lactam 17-C) | 2 | 1 | 0.25 | 0.25 | 1 | 8 | 1 | 1 | –
3 | CNCC(=O)N[C@@H](CC(C)C)C(=O)N[C@H]1CSSC[C@@H](C(=O)N(C)CC(=O)N[C@@H](CCN)C(=O)N[C@H](C(=O)N[C@@H](CCN)C(=O)N[C@H]2CCNC(=O)[C@H]([C@@H](C)O)NC(=O)[C@H](CCN)NC(=O)[C@H](CCN)NC(=O)[C@H](CC(C)C)NC(=O)[C@@H](CC(C)C)NC(=O)[C@H](CCN)NC2=O)[C@@H](C)O)NC(=O)[C@H](Cc2ccc(O)cc2)NC(=O)[C@H](CO)NC(=O)[C@H](CC(C)C)NC(=O)[C@@H]2CCCN2C(=O)[C@H]2CCCN2C(=O)[C@H](Cc2ccc(O)cc2)NC(=O)[C@H](C)NC(=O)[C@H](C(C)C)NC1=O [Ex. 186] (H-[Sar]LCVAY[dP]PLSYC[Sar][Dab]T[Dab][Dab][Dab][dL]L[Dab][Dab]T; disulfide 3-12; lactam 17-C) | 0.25 | 0.25 | 0.125 | 0.1251 | 0.0625 | 0.5 | 0.125 | <1 | –
4 | CNCC(=O)N[C@@H](Cc1c[nH]c2ccccc12)C(=O)N[C@H]1CSSC[C@@H](C(=O)N(C)CC(=O)N[C@@H](CCN)C(=O)N[C@H](C(=O)N[C@@H](CCN)C(=O)N[C@H]2CCNC(=O)[C@H]([C@@H](C)O)NC(=O)[C@H](CCNC(=O)[C@@H](N)CCCNC(=N)N)NC(=O)[C@H](CCN)NC(=O)[C@H](CC(C)C)NC(=O)[C@@H](CC(C)C)NC(=O)[C@H](CCN)NC2=O)[C@@H](C)O)NC(=O)[C@H](Cc2ccc(O)cc2)NC(=O)[C@H](CO)NC(=O)[C@H](CC(C)C)NC(=O)[C@@H]2CCCN2C(=O)[C@H]2CCCN2C(=O)[C@H](CO)NC(=O)[C@H](C)NC(=O)[C@H](C(C)C)NC1=O [Ex. 187] (H-[Sar]WCVAS[dP]PLSYC[Sar][Dab]T[Dab][Dab][Dab][dL]L[Dab][Dab](Arg)T; disulfide 3-12; lactam 17-C) | 2 | 1 | 0.125 | 0.125 | 1 | 1 | 0.125 | <1 | –
5 | CC(C)C[C@@H]1NC(=O)[C@H](CO)NC(=O)[C@H](C(C)C)NC(=O)[C@@H]2CCCN2C(=O)[C@H]2CCCN2C(=O)[C@H](CO)NC(=O)[C@H](C)NC(=O)[C@H](C(C)(C)C)NC(=O)[C@@H](NC(=O)[C@@H](N)Cc2c[nH]c3ccccc23)CSSC[C@@H](C(=O)N[C@@H](CCCN)C(=O)N[C@@H](CCN)C(=O)N[C@H]2CCNC(=O)[C@H]([C@@H](C)O)NC(=O)[C@H](CCN)NC(=O)[C@H](CCN)NC(=O)[C@H](CC(C)C)NC(=O)[C@@H](Cc3ccccc3)NC(=O)[C@H](CCN)NC2=O)NC1=O [Ex. 188] (H-WC[Tle]AS[dP]PVSLC[Orn][Dab][Dab][Dab][dF]L[Dab][Dab]T; disulfide 2-11; lactam 14-C) | 0.25 | 1 | 0.25 | 0.25 | 1 | 4 | 0.25 | <1 | –
6 | CC(C)C[C@@H]1NC(=O)[C@@H](CC(C)C)NC(=O)[C@H](CCN)NC(=O)[C@@H](NC(=O)[C@H](CCN)NC(=O)[C@H](CN)NC(=O)[C@@H]2CSSC[C@H](NC(=O)[C@@H](N)Cc3c[nH]c4ccccc34)C(=O)N[C@@H](C(C)(C)C)C(=O)N[C@@H](C)C(=O)N[C@@H]([C@@H](C)O)C(=O)N3CC[C@@H]3C(=O)N3CCC[C@H]3C(=O)N[C@@H](C(C)C)C(=O)N[C@@H](CO)C(=O)N[C@@H](Cc3ccc(O)cc3)C(=O)N2)CCNC(=O)[C@H]([C@@H](C)O)NC(=O)[C@H](CCN)NC(=O)[C@H](CCN)NC1=O [Ex. 189] (H-WC[Tle]AT[dAze]PVSYC[Dap][Dab][Dab][Dab][dL]L[Dab][Dab]T; disulfide 2-11; lactam 14-C) | 0.5 | 2 | 0.25 | 0.5 | 0.125 | 1 | 0.5 | 1 | –
7 | CC(C)C[C@@H]1NC(=O)[C@@H](Cc2ccccc2)NC(=O)[C@H](CCN)NC(=O)[C@@H](NC(=O)[C@H](CCN)NC(=O)[C@H](CCCN)NC(=O)[C@@H]2CSSC[C@H](NC(=O)[C@@H](N)Cc3c[nH]c4ccccc34)C(=O)N[C@@H](C(C)(C)C)C(=O)N[C@H]3CC(=O)NCC[C@H](NC(=O)[C@H](C(C)C)NC(=O)[C@@H]4CCCN4C(=O)[C@H]4CCN4C(=O)[C@H]([C@@H](C)O)NC3=O)C(=O)N[C@@H](Cc3ccc(O)cc3)C(=O)N2)CCNC(=O)[C@H]([C@@H](C)O)NC(=O)[C@H](CCN)NC(=O)[C@H](CCN)NC1=O [Ex. 191] (H-WC[Tle]DT[dAze]PV[Dab]YC[Orn][Dab][Dab][Dab][dF]L[Dab][Dab]T; disulfide 2-11; lactam 4-9, 14-C) | 0.125 | 1 | 0.5 | 0.5 | 0.25 | 0.5 | 0.25 | 6 | –
8 | CCCC[C@@H]1NC(=O)[C@@H]2CCCN2C(=O)[C@H]2CCCN2C(=O)[C@H](CO)NC(=O)[C@H](C)NC(=O)[C@H](C(C)(C)C)NC(=O)[C@H](CCN)NC(=O)[C@H](Cc2c[nH]c3ccccc23)NC(=O)[C@@H](N)CCC(=O)NCC[C@@H](C(N)=O)NC(=O)[C@H](CCC(=O)N[C@H](CCN)C(=O)N[C@H]2CCNC(=O)[C@H]([C@@H](C)O)NC(=O)[C@H](CCN)NC(=O)[C@H](CCN)NC(=O)[C@H](CC(C)C)NC(=O)[C@@H](Cc3ccccc3)NC(=O)[C@H](CCN)NC2=O)NC(=O)[C@H](CCN)NC(=O)[C@H](Cc2ccc(O)cc2)NC(=O)[C@H](CO)NC1=O [Ex. 193] (I: H-EW[Dab][Tle]AS[dP]P[Nle]SY[Dab]E[Dab]-NH2 / II: [dDab][Dab][Dab][dF]L[Dab][Dab]T; lactam I:1-I:14, II:2-II:C; amide I:13-II:N) | 0.5 | 2 | 0.5 | 1 | 1 | 1 | 0.5 | – | <1
